Measurements: the NIST ThermoML archive (doi:10.1016/j.jct.2017.08.004)

Assay: molar heat capacity at constant pressure
Settings: 101.33 kPa

OC[C@@H](O)[C@H](O)[C@@H](O)CO [xylitol]
molar heat capacity at constant pressure [J/K/mol]
Settings | Small sample (50 mg) DSC | relaxation calorimetry
261.15 K, Crystal | 182.91 | –
262.13 K, Crystal | – | 182.23
262.15 K, Crystal | 183.56 | –
263.15 K, Crystal | 184.15 | –
264.15 K, Crystal | 184.93 | –
265.15 K, Crystal | 185.58 | –
266.15 K, Crystal | 186.01 | –
267.15 K, Crystal | 186.68 | –
268.15 K, Crystal | 187.58 | –
269.15 K, Crystal | 188.3 | –
270 K, Crystal | – | 187.42
270.15 K, Crystal | 188.75 | –
271.15 K, Crystal | 189.44 | –
272.13 K, Crystal | – | 189.16
272.15 K, Crystal | 190.09 | –
273.15 K, Crystal | 190.92 | 189.56
274.15 K, Crystal | 191.54 | –
275.15 K, Crystal | 192.36 | –
276.15 K, Crystal | 193.1 | –
277.15 K, Crystal | 193.74 | –
278.15 K, Crystal | 194.49 | –
279.15 K, Crystal | 195.25 | –
280 K, Crystal | – | 194.26
280.15 K, Crystal | 195.98 | –
281.15 K, Crystal | 196.83 | –
282.15 K, Crystal | 197.52 | –
282.21 K, Crystal | – | 195.78
283.15 K, Crystal | 198.24 | –
284.15 K, Crystal | 198.78 | –
285.15 K, Crystal | 199.46 | –
286.15 K, Crystal | 200.2 | –
287.15 K, Crystal | 200.97 | –
288.15 K, Crystal | 201.79 | –
289.15 K, Crystal | 202.38 | –
290 K, Crystal | – | 201.22
290.15 K, Crystal | 203.24 | –
291.15 K, Crystal | 204 | –
292.15 K, Crystal | 204.53 | –
292.34 K, Crystal | – | 202.53
293.15 K, Crystal | 205.39 | –
294.15 K, Crystal | 206.39 | –
295.15 K, Crystal | 207.02 | –
296.15 K, Crystal | 207.76 | –
297.15 K, Crystal | 208.58 | –
298.15 K, Crystal | 209.23 | 207
299.15 K, Crystal | 209.95 | –
300 K, Crystal | – | 208.32
300.15 K, Crystal | 210.89 | –
301.15 K, Crystal | 211.84 | –
302.15 K, Crystal | 212.55 | –
302.38 K, Crystal | – | 210.13
303.15 K, Crystal | 213.48 | –
304.15 K, Crystal | 214.26 | –
305 K, Crystal | 215.28 | –
305.15 K, Crystal | 215.11 | –
306.15 K, Crystal | 216.14 | –
307.15 K, Crystal | 217.06 | –
308.15 K, Crystal | 217.82 | –
309.15 K, Crystal | 218.75 | –
310 K, Crystal | 219.82 | –
310.15 K, Crystal | 219.97 | –
311.15 K, Crystal | 220.76 | –
312.15 K, Crystal | 221.67 | –
313.15 K, Crystal | 222.64 | –
314.15 K, Crystal | 223.41 | –
315 K, Crystal | 224.06 | –
315.15 K, Crystal | 224.2 | –
316.15 K, Crystal | 225.05 | –
317.15 K, Crystal | 225.99 | –
318.15 K, Crystal | 226.72 | –
319.15 K, Crystal | 227.57 | –
320 K, Crystal | 228.13 | –
320.15 K, Crystal | 228.44 | –
321.15 K, Crystal | 229.1 | –
322.15 K, Crystal | 229.81 | –
323.15 K, Crystal | 230.76 | –
324.15 K, Crystal | 231.54 | –
325 K, Crystal | 232.15 | –
325.15 K, Crystal | 232.32 | –
326.15 K, Crystal | 233.13 | –
327.15 K, Crystal | 234.07 | –
328.15 K, Crystal | 234.91 | –
329.15 K, Crystal | 235.68 | –
330 K, Crystal | 236.23 | –
330.15 K, Crystal | 236.5 | –
331.15 K, Crystal | 237.35 | –
332.15 K, Crystal | 238.2 | –
333.15 K, Crystal | 238.98 | –
334.15 K, Crystal | 239.74 | –
335 K, Crystal | 240.51 | –
335.15 K, Crystal | 240.54 | –
336.15 K, Crystal | 241.37 | –
337.15 K, Crystal | 242.09 | –
338.15 K, Crystal | 242.99 | –
339.15 K, Crystal | 244.05 | –
340 K, Crystal | 245.1 | –
340.15 K, Crystal | 244.86 | –
341.15 K, Crystal | 245.84 | –
342.15 K, Crystal | 246.78 | –
343.15 K, Crystal | 247.9 | –
345 K, Crystal | 250.14 | –
384.05 K, Liquid | 437.55 | –
384.15 K, Liquid | 437.54 | –
385 K, Liquid | 437.31 | –
385.15 K, Liquid | 437.23 | –
386.15 K, Liquid | 436.89 | –
387.15 K, Liquid | 436.55 | –
388.15 K, Liquid | 436.95 | –
389.15 K, Liquid | 436.95 | –
390 K, Liquid | 437.71 | –
390.15 K, Liquid | 437.09 | –
391.15 K, Liquid | 437.18 | –
392.15 K, Liquid | 437.31 | –
393.15 K, Liquid | 437.7 | –
394.15 K, Liquid | 438.11 | –
395 K, Liquid | 438.53 | –
395.15 K, Liquid | 438.36 | –
396.15 K, Liquid | 438.65 | –
397.15 K, Liquid | 439 | –
398.15 K, Liquid | 439.02 | –
399.15 K, Liquid | 439.36 | –
400 K, Liquid | 439.66 | –
400.15 K, Liquid | 439.81 | –
401.15 K, Liquid | 440.13 | –
402.15 K, Liquid | 440.23 | –
403.15 K, Liquid | 440.54 | –
404.15 K, Liquid | 441 | –
405 K, Liquid | 440.98 | –
405.15 K, Liquid | 441.38 | –
406.15 K, Liquid | 441.87 | –
407.15 K, Liquid | 442.08 | –
408.15 K, Liquid | 442.44 | –
409.15 K, Liquid | 442.7 | –
410 K, Liquid | 442.38 | –
410.15 K, Liquid | 442.88 | –
411.15 K, Liquid | 443.4 | –
412.15 K, Liquid | 443.35 | –
413.15 K, Liquid | 443.38 | –
414.15 K, Liquid | 443.78 | –
415 K, Liquid | 443.73 | –
415.15 K, Liquid | 443.82 | –
416.15 K, Liquid | 444.07 | –
417.15 K, Liquid | 444.35 | –
418.15 K, Liquid | 444.54 | –
419.15 K, Liquid | 444.75 | –
420 K, Liquid | 444.92 | –
420.15 K, Liquid | 444.83 | –
421.15 K, Liquid | 444.89 | –
422.15 K, Liquid | 445.1 | –
423.15 K, Liquid | 445.32 | –
424.15 K, Liquid | 445.31 | –
425 K, Liquid | 445.83 | –
425.15 K, Liquid | 445.36 | –
426.15 K, Liquid | 445.64 | –
427.15 K, Liquid | 445.75 | –
428.15 K, Liquid | 445.78 | –
429.15 K, Liquid | 445.83 | –
430 K, Liquid | 446.33 | –
430.15 K, Liquid | 445.91 | –
431.15 K, Liquid | 446.11 | –
432.15 K, Liquid | 446.26 | –
433.15 K, Liquid | 446.16 | –
434.15 K, Liquid | 446.18 | –
435 K, Liquid | 446.32 | –
435.15 K, Liquid | 446.7 | –
436.15 K, Liquid | 446.78 | –
437.15 K, Liquid | 446.54 | –
438.15 K, Liquid | 446.6 | –
